From patent US20240166681A1, “3'3' CYCLIC DINUCLEOTIDES CONTAINING ISONUCLEOTIDIC UNITS” (INSTITUTE OF ORGANIC CHEMISTRY AND BIOCHEMISTRY AS CR, V. …, priority 2021, published 2024) come the findings set out here.

Experiment [1] addresses T1, WT STING (Homo sapiens, UniProt Q86WV6, H232R). As to the kind of experiment: Differential scanning fluorimetry with WT STING. Further details: truncated human WT STING or AQ STING (amino acid residues 140-343); 8xHis (N, cleaved yes); SUMO (N, cleaved yes); made in house; host or cells: E. coli Rosetta-gami B (DE3). To be noted: thermal shift, truncated human WT STING 0.1 mg/ml, 150 μM CDN; for ΔTm at 150 µM: read-out: DSF ΔTm WT STING. The experiment is classed as binding. From the text:
Both WT and AQ human STING (G230A-R293Q) cDNA were amplified by the use of PCR (Phusion® High-Fidelity DNA Polymerase, cat. #M0530S, NEB, Ipswich, USA) using oligonucleotides hSTING140-BamH-For ([…]) (SEQ ID NO:5) and hSTING379-Not-Rev3 ([…]) (SEQ ID NO:6) from pUNO1-hSTING-WT (cat. #puno1-hstingwt, InvivoGen, San Diego, USA) and pUNO1-hSTING-HAQ plasmids (punol-hsting-haq, InvivoGen, San Diego, USA). Purified PCR products were cleaved with restriction enzymes BamHI (cat. #R0136S, NEB, Ipswich, USA) and Notl (cat. #R0189S, NEB, Ipswich, USA) and cloned into the pSUMO vector linearized with the identical enzymes. Plasmid pSUMO was created by introducing 8-His-SUMO sequence between Ndel and BamHI sites of pHis-parallel2 plasmid (Clontech, Moutain View, USA). pSUMO-STING WT or pSUMO-STING AQ plasmids thus encoded truncated human WT STING or AQ STING (amino acid residues 140-343) with N-terminal 8xHis and SUMO tag.
The recombinant WT STING and AQ STING proteins were overexpressed in Rosetta-gami B (DE3) competent cells (cat. #71136-3, Merck Millipore, Billerica, USA). Bacterial pellets were re-suspended in ice-cold lysis buffer containing 50 mmol·l^−1 TrisCl (cat. #T1503, Sigma Aldrich, Czech Republic) pH 8.0, 300 mmol·l^−1 NaCl, 3 mmol·l^−1 β-mercaptoethanol (cat. #M6250, Sigma Aldrich, Czech Republic), 10% glycerol (cat. #G5516, Sigma Aldrich, Czech Republic) and 20 mmol·l^−1 imidazole (cat. #15513, Sigma Aldrich, Czech Republic) using Dounce homogenizer. DNase I (cat. #D5025, Sigma Aldrich, Czech Republic) and RNase A (cat. #R6513, Sigma Aldrich, Czech Republic) were added (final concentration 50 μg/ml) together with MgCl2 (final concentration 5 mmol·l^−1) to the homogenate and bacteria were lysed using French Press G-M™ High-Pressure Cell Press Homogenizer (1500 psi, 3 cycles). Lysate was spun 30,000 g for 20 minutes and supernatant was gently stirred with Ni-NTA resin (cat. #745400.25 Macherey-Nagel, Duren, Germany) for 30 minutes. The resin was poured into a chromatography column, washed with 50 ml buffer A (50 mmol·l^−1 TrisCl (pH 8.0), 800 mmol·l^−1 NaCl, 3 mmol·l^−1 (3-mercaptol; 10% glycerol; 20 mmol·l^−1 imidazole) and 8-His-SUMO tagged STING proteins were eluted with 15 ml buffer A containing 300 mmol·l^−1 imidazole. The eluted proteins were cleaved with recombinant SUMO protease (80 μg/ml of protein solution, cat. #12588018, ThermoFisher, Waltham, USA). The proteins were further purified by size exclusion chromatography using HiLoad 16/60 Superdex 75 (cat. #28989333, GE Healthcare Bio-Sciences, Pittsburgh, USA) in 50 mmol·l^−1 Tris Cl buffer pH 7.4 containing 150 mmol·l^−1 NaCl, and 10% glycerol. Proteins were concentrated with Amicon® Ultra-15 10 K device (cat. #UFC901008, Merck Millipore, Billerica, USA) and flash frozen in liquid N2.
WT and AQ allelic forms of STING protein were diluted to the final concentration 0.1 mg/ml in 100 mmol·l^−1 TrisCl buffer pH 7.4 containing, 150 mmol·l^−1 NaCl, 1:500 SYPRO Orange (cat. #S6650, ThermoFisher, Waltham, USA) and 150 μM CDN or water. 20 μL solutions of the reaction mixtures were pipetted in triplicates into 96 well optical reaction plates and thermal denaturation of samples were performed on real time PCR cycler (LightCycler® 480 Instrument II—Roche, Basel, Switzerland). The first derivative of the thermal denaturation curves was performed to calculate denaturing temperatures of STING—CDN complexes and STING apoproteins. The thermal shift for each CDN was calculated by subtracting the average denaturing temperature of STING apoprotein from the average denaturing temperature of STING CDN complex.
Target sequence in this assay (Q86WV6 140-343 H232R): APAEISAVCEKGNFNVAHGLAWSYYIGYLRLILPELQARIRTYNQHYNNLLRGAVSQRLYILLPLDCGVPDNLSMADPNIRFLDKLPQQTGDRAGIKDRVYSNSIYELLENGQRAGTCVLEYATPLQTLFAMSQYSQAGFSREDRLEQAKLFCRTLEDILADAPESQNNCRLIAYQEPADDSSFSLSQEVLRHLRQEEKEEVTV

In experiment [2] the target is T1, WT STING. As to the kind of experiment: 293T WT STING standard reporter assay. The experiment is classed as cell-based. Further details: host or cells: 293T (ATCC CRL-3216), stably transfected. To be noted: 293T wtSTING-FL cells, no digitonin, 7 h incubation, luciferase reporter. On the procedure:
After 5 minutes incubation at room temperature (RT), 250 μL of the mixture was added dropwise to the cells in one well. Cells were incubated 36 hours at 37° C. with 5% CO2, and then detached with 0.05% Trypsin and 0.22 g/L EDTA (both cat. #L0941, Biowest, Riverside, USA).
Transfected cells were seeded onto poly-D-lysine coated six well plates at density 50,000 cells per 1 cm^2 in DMEM medium with high glucose containing 10% heat inactivated FBS, 30 μg/mL blasticidin (cat. #ant-b1-05, InvivoGen, San Diego, USA), 0.06 mg/ml Penicillin G and 0.1 mg/ml Streptomycin Sulfate (both cat. #. L0018, Biowest, Riverside, USA). The medium was replenished every 3-4 days until visible colonies of cells resistant to blasticidin were formed.
Blasticidin resistant cells stably expressing WT STING were further transfected with […] plasmid following the same procedure as described above. […] Homogeneous culture of stably double transfected cells was prepared by limiting dilution of cells in 96 well plates and wells with cells were selected that originated from a single cell.
The medium was removed next day and three-fold serial dilutions of compounds in 100 μl medium were added to the cells. The plates with cells were incubated for 7 hours at 37° C. with 5% CO2. After 50 μl of the medium was removed, 30 μl of ONE-Glo™ Luciferase Assay System reagent (cat. #E6120, Promega, Madison, USA) was added to each well and luminescence was read on Synergy H1 (Biotek, Winooski, USA). […] (cat. #tlrl-nacga23), and 2′2′-cGAMP (cat. #tlrl-nacga22) were purchased from Invivogen (San Diego, USA).
Target sequence in this assay (Q86WV6 whole entry H232R, the tested form may be a part): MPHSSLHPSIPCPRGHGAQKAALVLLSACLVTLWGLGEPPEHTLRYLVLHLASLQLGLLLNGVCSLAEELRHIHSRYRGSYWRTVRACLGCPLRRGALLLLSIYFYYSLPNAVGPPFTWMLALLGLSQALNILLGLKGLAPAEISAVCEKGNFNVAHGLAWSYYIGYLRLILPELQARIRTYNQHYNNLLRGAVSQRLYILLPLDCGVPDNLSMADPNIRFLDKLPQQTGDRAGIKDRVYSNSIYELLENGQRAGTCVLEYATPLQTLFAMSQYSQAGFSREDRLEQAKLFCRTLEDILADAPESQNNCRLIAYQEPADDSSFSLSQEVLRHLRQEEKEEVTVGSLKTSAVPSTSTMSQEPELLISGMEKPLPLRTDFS

As to `Nc1nc2c(ncn2[C@@H]2CO[C@@H]3COP(=O)(O)O[C@H]4[C@H](n5cnc6c(N)ncnc65)CO[C@@H]4COP(=O)(O)O[C@@H]23)c(=O)[nH]1` [Compound 52, (1S,6R,9R,10S,15R,18R)-9-(2-amino-6-oxo-6,9-dihydro-1H-purin-9-yl)-18-(6-amino-9H-purin-9-yl)-3,12-dihydroxy-2,4,7,11,13,16-hexaoxa-3λ^5,12λ^5-diphosphatricyclo[13.3.0.0^6,10]octadecane-3,12-dione], the shift in melting temperature (ΔTm) at 150 µM in experiment [1] is 2.4 °C.
With `Nc1ncnc2c1ncn2[C@@H]1CO[C@@H]2COP(=O)(O)O[C@H]3C[C@H](n4cnc5c(N)ncnc54)O[C@@H]3COP(=O)(O)O[C@@H]12` [Compound 50, (1S,6R,8R,10S,15R,18R)-8,18-bis(6-amino-9H-purin-9-yl)-3,12-dihydroxy-2,4,7,11,13,16-hexaoxa-3λ^5,12λ^5-diphosphatricyclo[13.3.0.0^6,10]octadecane-3,12-dione], the thermal shift (ΔTm) at 150 µM in experiment [1] came to 1.8 °C.
As for `Nc1ncnc2c1ncn2[C@@H]1CO[C@@H]2COP(=O)(O)O[C@H]3[C@@H](F)[C@H](n4cnc5c(N)ncnc54)O[C@@H]3COP(=O)(O)O[C@@H]12` [Compound 28, (1S,6R,8R,9R,10R,15R,18R)-8,18-bis(6-amino-9H-purin-9-yl)-9-fluoro-3,12-dihydroxy-2,4,7,11,13,16-hexaoxa-3λ^5,12λ^5-diphosphatricyclo[13.3.0.0^6,10]octadecane-3,12-dione], the ΔTm at 150 µM in experiment [1] came to 5.6 °C.
Turning to `Nc1nc2c(ncn2[C@@H]2CO[C@@H]3COP(=O)(O)O[C@H]4[C@@H](F)[C@H](n5cnc6c(N)ncnc65)O[C@@H]4COP(=O)(O)O[C@@H]23)c(=O)[nH]1` [Compound 51, (1S,6R,8R,9R,10R,15R,18R)-18-(2-amino-6-oxo-6,9-dihydro-1H-purin-9-yl)-8-(6-amino-9H-purin-9-yl)-9-fluoro-3,12-dihydroxy-2,4,7,11,13,16-hexaoxa-3λ^5,12λ^5-diphosphatricyclo[13.3.0.0^6,10]octadecane-3,12-dione], in experiment [1], the ΔTm at 150 µM stood at 6.8 °C.
As for `Nc1nc2c(ncn2[C@@H]2O[C@@H]3COP(=O)(O)O[C@H]4[C@H](n5cnc6c(N)ncnc65)CO[C@@H]4COP(=O)(O)O[C@H]3[C@H]2F)c(=O)[nH]1` [Compound 24, (1S,6R,8R,9R,10R,15R,18R)-8-(2-amino-6-oxo-6,9-dihydro-1H-purin-9-yl)-18-(6-amino-9H-purin-9-yl)-9-fluoro-3,12-dihydroxy-2,4,7,11,13,16-hexaoxa-3λ^5,12λ^5-diphosphatricyclo[13.3.0.0^6,10]octadecane-3,12-dione], in experiment [1], the ΔTm at 150 µM was found to be 8.5 °C.
As for `Nc1ncnc2c1ncn2[C@@H]1CO[C@@H]2COP(=O)(S)O[C@H]3[C@@H](F)[C@H](n4cnc5c(N)ncnc54)O[C@@H]3COP(=O)(S)O[C@@H]12` (stereo partly drawn) [Compound 55, (1S,6R,8R,9R,10R,15R,18R)-8,18-bis(6-amino-9H-purin-9-yl)-9-fluoro-3,12-disulfanyl-2,4,7,11,13,16-hexaoxa-3λ^5,12λ^5-diphosphatricyclo[13.3.0.0^6,10]octadecane-3,12-dione], the EC50 in experiment [2] amounted to 340 nM. The “DSF ΔTm WT STING” value in experiment [1] worked out at 11.0 °C.
As to `Nc1ncnc2c1ncn2[C@@H]1CC[C@@H]2COP(=O)(O)O[C@H]3[C@@H](F)[C@H](n4cnc5c(N)ncnc54)O[C@@H]3COP(=O)(O)O[C@H]21` [Compound 34, (1R,6R,8R,9R,10R,15R,18R)-8,18-bis(6-amino-9H-purin-9-yl)-9-fluoro-3,12-dihydroxy-2,4,7,11,13-pentaoxa-3λ^5,12λ^5-diphosphatricyclo[13.3.0.0^6,10]octadecane-3,12-dione], the ΔTm at 150 µM in experiment [1] turned out to be 1.6 °C.
On the same count and under the same terms, to `Nc1nc2c(ncn2[C@@H]2CO[C@@H]3COP(=O)(O)O[C@H]4C[C@H](n5cnc6c(N)ncnc65)O[C@@H]4COP(=O)(O)O[C@@H]23)c(=O)[nH]1` [Compound 53, (1S,6R,8R,10S,15R,18R)-18-(2-amino-6-oxo-6,9-dihydro-1H-purin-9-yl)-8-(6-amino-9H-purin-9-yl)-3,12-dihydroxy-2,4,7,11,13,16-hexaoxa-3λ^5,12λ^5-diphosphatricyclo[13.3.0.0^6,10]octadecane-3,12-dione] belongs 2.9 °C.
Consider `Nc1ncnc2c1ncn2[C@@H]1CO[C@@H]2COP(=O)(S)O[C@H]3[C@@H](F)[C@H](n4cnc5c(N)ncnc54)O[C@@H]3COP(=O)(S)O[C@@H]12` (stereo partly drawn) [Compound 54, (1S,6R,8R,9R,10R,15R,18R)-8,18-bis(6-amino-9H-purin-9-yl)-9-fluoro-3,12-disulfanyl-2,4,7,11,13,16-hexaoxa-3λ^5,12λ^5-diphosphatricyclo[13.3.0.0^6,10]octadecane-3,12-dione], for which, in experiment [2], the EC50 worked out at 156 nM. The shift in melting temperature (ΔTm) at 150 µM in experiment [1] came out at 8.5 °C.
